T/C data for 4 compounds are collected here from PubChem BioAssay AID248 (DTP/NCI, 2004).

Values joined by “and” are separate entries in the source; they are usually repeats but may differ in a detail not shown here. Equal entries are not always repeated. Toxic doses and inconclusive results are not listed.

The test relates to L1210 leukemia ip in BDF1 mice, survival T/C. The experiment in a line: NCI In Vivo Anticancer Drug Screen. Data for tumor model L1210 Leukemia (intraperitoneal) in B6D2F1 (BDF1) mice. Particulars: higher = longer survival. In a few lines: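 Each compound was tested against a transplantable tumor grown in mice. The endpoint was survival, with treated animals benchmarked against vehicle controls as a simple ratio.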

Regarding `S=P(N1CC1)(N1CC1)N1CC1`, the T/C reads like this: (endpoint: mean survival time, dose: 0.19 mg/kg/injection, schedule: Q01DX009 (ip), vehicle: saline) 103 % of control and 104 % of control; (endpoint: mean survival time, dose: 0.3 mg/kg/injection, schedule: Q01DX Z (ip), vehicle: carboxymethylcellulose (CMC)) 106 % of control; (endpoint: mean survival time, dose: 0.38 mg/kg/injection, schedule: Q01DX009 (ip), vehicle: saline) 104 % of control and 111 % of control; (endpoint: mean survival time, dose: 0.6 mg/kg/injection, schedule: Q01DX Z (ip), vehicle: carboxymethylcellulose (CMC)) 101 % of control; (endpoint: mean survival time, dose: 0.75 mg/kg/injection, schedule: Q01DX009 (ip), vehicle: saline) 107 % of control and 120 % of control; (endpoint: mean survival time, dose: 1.0 mg/kg/injection, schedule: Q01DX001 (ip), vehicle: saline) 95 % of control (2×) and 119 % of control. Further, the T/C reads like this: (endpoint: mean survival time, dose: 1.0 mg/kg/injection, schedule: Q01DX001 (oral), vehicle: saline) 98 % of control and 105 % of control; (endpoint: mean survival time, dose: 1.0 mg/kg/injection, schedule: Q01DX009 (ip), vehicle: saline) 98 % of control and 119 % of control; (endpoint: mean survival time, dose: 1.0 mg/kg/injection, schedule: Q04DX002 (ip), vehicle: saline) 102 % of control and 121 % of control; (endpoint: mean survival time, dose: 1.0 mg/kg/injection, schedule: Q04DX003 (ip), vehicle: saline) 96 % of control and 104 % of control and 116 % of control; (endpoint: mean survival time, dose: 1.2 mg/kg/injection, schedule: Q01DX Z (ip), vehicle: carboxymethylcellulose (CMC)) 109 % of control; (endpoint: mean survival time, dose: 1.25 mg/kg/injection, schedule: Q01DX Z (ip), vehicle: saline) 118 % of control. Also, the T/C was 113 % of control (endpoint: mean survival time, dose: 1.5 mg/kg/injection, schedule: Q01DX010 (oral), vehicle: carboxymethylcellulose (CMC)); 102 % of control and 117 % of control (endpoint: mean survival time, dose: 1.56 mg/kg/injection, schedule: Q01DX009 (ip), vehicle: saline); 104 % of control (endpoint: mean survival time, dose: 1.65 mg/kg/injection, schedule: Q01DX001 (ip), vehicle: saline); 97 % of control and 103 % of control and 114 % of control (endpoint: mean survival time, dose: 2.0 mg/kg/injection, schedule: Q01DX001 (ip), vehicle: saline); 98 % of control and 102 % of control (endpoint: mean survival time, dose: 2.0 mg/kg/injection, schedule: Q01DX001 (oral), vehicle: saline); 108 % of control (endpoint: mean survival time, dose: 2.0 mg/kg/injection, schedule: Q01DX009 (ip), vehicle: saline). Moreover, the T/C reads like this: (endpoint: mean survival time, dose: 2.0 mg/kg/injection, schedule: Q04DX002 (ip), vehicle: saline) 101 % of control and 107 % of control; (endpoint: mean survival time, dose: 2.0 mg/kg/injection, schedule: Q04DX003 (ip), vehicle: saline) 102 % of control and 109 % of control and 116 % of control; (endpoint: mean survival time, dose: 2.4 mg/kg/injection, schedule: Q01DX Z (ip), vehicle: carboxymethylcellulose (CMC)) 121 % of control and 123 % of control; (endpoint: mean survival time, dose: 2.5 mg/kg/injection, schedule: Q01DX001 (ip), vehicle: saline) 110 % of control; (endpoint: mean survival time, dose: 2.5 mg/kg/injection, schedule: Q01DX Z (ip), vehicle: saline) 120 % of control; (endpoint: mean survival time, dose: 3.0 mg/kg/injection, schedule: Q01DX001 (ip), vehicle: saline) 106 % of control. Besides, the T/C (endpoint: mean survival time, dose: 3.0 mg/kg/injection, schedule: Q01DX010 (oral), vehicle: carboxymethylcellulose (CMC)) was 115 % of control; the T/C (endpoint: mean survival time, dose: 3.6 mg/kg/injection, schedule: Q01DX Z (ip), vehicle: carboxymethylcellulose (CMC)) is 118 % of control; the T/C (endpoint: mean survival time, dose: 3.8 mg/kg/injection, schedule: Q01DX001 (ip), vehicle: saline) was 110 % of control; the T/C (endpoint: mean survival time, dose: 4.0 mg/kg/injection, schedule: Q01DX001 (ip), vehicle: saline) is 97 % of control and 106 % of control and 111 % of control; the T/C (endpoint: mean survival time, dose: 4.0 mg/kg/injection, schedule: Q01DX001 (oral), vehicle: saline) was 101 % of control and 105 % of control; the T/C (endpoint: mean survival time, dose: 4.0 mg/kg/injection, schedule: Q01DX009 (ip), vehicle: saline) is 160 % of control and 161 % of control and 191 % of control. Besides, the T/C was 102 % of control (endpoint: mean survival time, dose: 5.0 mg/kg/injection, schedule: Q01DX Z (ip), vehicle: saline); 111 % of control (endpoint: mean survival time, dose: 5.7 mg/kg/injection, schedule: Q01DX001 (ip), vehicle: saline); 113 % of control and 123 % of control (endpoint: mean survival time, dose: 6.0 mg/kg/injection, schedule: Q01DX001 (ip), vehicle: saline); 178 % of control (endpoint: mean survival time, dose: 6.25 mg/kg/injection, schedule: Q01DX009 (ip), vehicle: saline); 106 % of control and 118 % of control (endpoint: mean survival time, dose: 7.5 mg/kg/injection, schedule: Q01DX001 (ip), vehicle: saline); 105 % of control and 117 % of control (endpoint: mean survival time, dose: 8.0 mg/kg/injection, schedule: Q01DX001 (oral), vehicle: saline). Also, the T/C runs as follows: (endpoint: mean survival time, dose: 8.0 mg/kg/injection, schedule: Q01DX009 (ip), vehicle: saline) 107 % of control and 113 % of control; (endpoint: mean survival time, dose: 8.0 mg/kg/injection, schedule: Q04DX003 (ip), vehicle: saline) 150 % of control and 179 % of control; (endpoint: mean survival time, dose: 8.7 mg/kg/injection, schedule: Q01DX001 (ip), vehicle: saline) 161 % of control; (endpoint: mean survival time, dose: 11.0 mg/kg/injection, schedule: Q01DX001 (ip), vehicle: saline) 122 % of control; (endpoint: mean survival time, dose: 12.0 mg/kg/injection, schedule: Q01DX009 (ip), vehicle: saline) 95 % of control and 100 % of control; (endpoint: mean survival time, dose: 12.0 mg/kg/injection, schedule: Q01DX010 (oral), vehicle: carboxymethylcellulose (CMC)) 166 % of control. For the same compound, the T/C reads like this: (endpoint: mean survival time, dose: 12.5 mg/kg/injection, schedule: Q01DX009 (ip), vehicle: saline) 118 % of control; (endpoint: mean survival time, dose: 14.0 mg/kg/injection, schedule: Q01DX001 (ip), vehicle: saline) 109 % of control; (endpoint: mean survival time, dose: 15.0 mg/kg/injection, schedule: Q01DX001 (ip), vehicle: saline) 163 % of control and 201 % of control; (endpoint: mean survival time, dose: 16.0 mg/kg/injection, schedule: Q01DX001 (oral), vehicle: saline) 121 % of control; (endpoint: mean survival time, dose: 16.0 mg/kg/injection, schedule: Q04DX003 (ip), vehicle: saline) 104 % of control; (endpoint: mean survival time, dose: 17.0 mg/kg/injection, schedule: Q01DX001 (ip), vehicle: saline) 152 % of control and 155 % of control and 163 % of control. The T/C by setting is: (endpoint: mean survival time, dose: 20.0 mg/kg/injection, schedule: Q01DX001 (ip), vehicle: saline) 163 % of control; (endpoint: mean survival time, dose: 22.0 mg/kg/injection, schedule: Q01DX001 (ip), vehicle: saline) 191 % of control; (endpoint: mean survival time, dose: 23.0 mg/kg/injection, schedule: Q01DX001 (ip), vehicle: saline) 150 % of control; (endpoint: mean survival time, dose: 24.0 mg/kg/injection, schedule: Q01DX010 (oral), vehicle: carboxymethylcellulose (CMC)) 152 % of control; (endpoint: mean survival time, dose: 32.0 mg/kg/injection, schedule: Q04DX002 (ip), vehicle: saline) 94 % of control; (endpoint: median survival time, dose: 1.5 mg/kg/injection, schedule: Q01DX009 (ip), vehicle: distilled water + alcohol) 103 % of control. Further, the T/C is, setting by setting: (endpoint: median survival time, dose: 1.5 mg/kg/injection, schedule: Q01DX009 (ip), vehicle: other) 94 % of control; (endpoint: median survival time, dose: 4.0 mg/kg/injection, schedule: Q01DX009 (ip), vehicle: water) 151 % of control; (endpoint: median survival time, dose: 5.0 mg/kg/injection, schedule: Q01DX009 (ip), vehicle: water) 108 % of control; (endpoint: median survival time, dose: 6.0 mg/kg/injection, schedule: Q01DX009 (ip), vehicle: water) 110 % of control.
Take `Cc1cc(Br)ccc1NNS(=O)(=O)c1cccc(N)c1`: the T/C reads like this: (endpoint: mean survival time, dose: 100.0 mg/kg/injection, schedule: Q01DX001 (ip), vehicle: Klucel (hydroxypropylcellulose) (HPC)) 98 % of control; (endpoint: mean survival time, dose: 100.0 mg/kg/injection, schedule: Q04DX003 (ip), vehicle: Klucel (hydroxypropylcellulose) (HPC)) 91 % of control; (endpoint: mean survival time, dose: 200.0 mg/kg/injection, schedule: Q01DX001 (ip), vehicle: Klucel (hydroxypropylcellulose) (HPC)) 107 % of control; (endpoint: mean survival time, dose: 200.0 mg/kg/injection, schedule: Q04DX003 (ip), vehicle: Klucel (hydroxypropylcellulose) (HPC)) 97 % of control; (endpoint: mean survival time, dose: 400.0 mg/kg/injection, schedule: Q01DX001 (ip), vehicle: Klucel (hydroxypropylcellulose) (HPC)) 91 % of control; (endpoint: mean survival time, dose: 400.0 mg/kg/injection, schedule: Q04DX003 (ip), vehicle: Klucel (hydroxypropylcellulose) (HPC)) 107 % of control.
Consider `CC1CCCCC1(C)C1C=CC(=O)OC1(C)C` (centres undefined), for which the T/C reads like this: (endpoint: mean survival time, dose: 25.0 mg/kg/injection, schedule: Q04DX003 (ip), vehicle: saline) 97 % of control; (endpoint: mean survival time, dose: 50.0 mg/kg/injection, schedule: Q04DX003 (ip), vehicle: saline) 97 % of control; (endpoint: mean survival time, dose: 100.0 mg/kg/injection, schedule: Q04DX003 (ip), vehicle: saline) 97 % of control.
As to `CN(C=O)C(=S)[S][Sb]([S]C(=S)Nc1ccc(S(=O)(=O)Nc2ccc(N=Nc3ccccc3)cc2)cc1)[S]C(=S)N(C)C=O`, the T/C was 106 % of control (endpoint: mean survival time, dose: 100.0 mg/kg/injection, schedule: Q01DX001 (ip), vehicle: steriod suspending solution) and 90 % of control (endpoint: mean survival time, dose: 200.0 mg/kg/injection, schedule: Q01DX001 (ip), vehicle: steriod suspending solution).
